Data set [1] is described as follows: The drug is tested on WLS-007 corresponding to human gut metagenome with ENA study accession number: PRJEB37062 and ENA sample accession number: ERS12561742 for biotransformation under anaerobic condition. The drug concentrations were measured over 9 timepoints collected between 0 and 24 hours of incubation by liquid-chromatography-coupled mass spectrometry (LC–MS). The note with it: 2 µM.

For data set [2] the following is noted: human gut metagenome, 24 h, 2 µM.
For data set [3] the following is noted: human gut metagenome, 24 h, 2 µM. The source holds these as a separate data set.
Data set [4] can be described thus: The drug is tested on Z-013 corresponding to rabbit gut metagenome with ENA study accession number: PRJEB37062 and ENA sample accession number: ERS12561813 for biotransformation under anaerobic condition. The drug concentrations were measured over 9 timepoints collected between 0 and 24 hours of incubation by liquid-chromatography-coupled mass spectrometry (LC–MS). To be noted: 2 µM.

The conditions of data set [5]: human gut metagenome, 24 h, 2 µM. This is another data set of the same source.
Data set [6] in a line: The drug is tested on WLS-027 corresponding to human gut metagenome with ENA study accession number: PRJEB37062 and ENA sample accession number: ERS12561744 for biotransformation under anaerobic condition. The drug concentrations were measured over 9 timepoints collected between 0 and 24 hours of incubation by liquid-chromatography-coupled mass spectrometry (LC–MS). To be noted: 2 µM.

For data set [7] the following is noted: human gut metagenome, 24 h, 2 µM. This is another data set of the same source.
Data set [8] is described as follows: The drug is tested on Z-030 corresponding to mouse gut metagenome with ENA study accession number: PRJEB37062 and ENA sample accession number: ERS12561829 for biotransformation under anaerobic condition. The drug concentrations were measured over 9 timepoints collected between 0 and 24 hours of incubation by liquid-chromatography-coupled mass spectrometry (LC–MS). To be noted: 2 µM.

Data set [9] is described as follows: The drug is tested on WLS-082 corresponding to human gut metagenome with ENA study accession number: PRJEB37062 and ENA sample accession number: ERS12561751 for biotransformation under anaerobic condition. The drug concentrations were measured over 9 timepoints collected between 0 and 24 hours of incubation by liquid-chromatography-coupled mass spectrometry (LC–MS). To be noted: 2 µM.

Data set [10] can be described thus: The drug is tested on WLS-090 corresponding to human gut metagenome with ENA study accession number: PRJEB37062 and ENA sample accession number: ERS12561753 for biotransformation under anaerobic condition. The drug concentrations were measured over 9 timepoints collected between 0 and 24 hours of incubation by liquid-chromatography-coupled mass spectrometry (LC–MS). The note with it: 2 µM.

Data set [11] is described as follows: The drug is tested on WLS-069 corresponding to human gut metagenome with ENA study accession number: PRJEB37062 and ENA sample accession number: ERS12561748 for biotransformation under anaerobic condition. The drug concentrations were measured over 9 timepoints collected between 0 and 24 hours of incubation by liquid-chromatography-coupled mass spectrometry (LC–MS). The note with it: 2 µM.

Data set [12] in a line: The drug is tested on Z-008 corresponding to metagenome with ENA study accession number: PRJEB37062 and ENA sample accession number: ERS12561808 for biotransformation under anaerobic condition. The drug concentrations were measured over 9 timepoints collected between 0 and 24 hours of incubation by liquid-chromatography-coupled mass spectrometry (LC–MS). The note with it: 2 µM.

The nature of data set [13]: The drug is tested on Z-025 corresponding to rabbit gut metagenome with ENA study accession number: PRJEB37062 and ENA sample accession number: ERS12561824 for biotransformation under anaerobic condition. The drug concentrations were measured over 9 timepoints collected between 0 and 24 hours of incubation by liquid-chromatography-coupled mass spectrometry (LC–MS). The note with it: 2 µM.

For data set [14] the following is noted: human gut metagenome, 24 h, 2 µM. This is another data set of the same source.
The nature of data set [15]: The drug is tested on Z-014 corresponding to rat gut metagenome with ENA study accession number: PRJEB37062 and ENA sample accession number: ERS12561814 for biotransformation under anaerobic condition. The drug concentrations were measured over 9 timepoints collected between 0 and 24 hours of incubation by liquid-chromatography-coupled mass spectrometry (LC–MS). The note with it: 2 µM.

The conditions of data set [16]: human gut metagenome, 24 h, 2 µM. This is another data set of the same source.
Data set [17] in a line: The drug is tested on WLS-370 corresponding to human gut metagenome with ENA study accession number: PRJEB37062 and ENA sample accession number: ERS12561793 for biotransformation under anaerobic condition. The drug concentrations were measured over 9 timepoints collected between 0 and 24 hours of incubation by liquid-chromatography-coupled mass spectrometry (LC–MS). To be noted: 2 µM.

For data set [18] the following is noted: human gut metagenome, 24 h, 2 µM. The source holds these as a separate data set.
For data set [19] the following is noted: human gut metagenome, 24 h, 2 µM. The source holds these as a separate data set.
Data set [20] is described as follows: The drug is tested on WLS-010 corresponding to human gut metagenome with ENA study accession number: PRJEB37062 and ENA sample accession number: ERS12561743 for biotransformation under anaerobic condition. The drug concentrations were measured over 9 timepoints collected between 0 and 24 hours of incubation by liquid-chromatography-coupled mass spectrometry (LC–MS). The note with it: 2 µM.
Further: call rule not given here.

Regarding `CC(C)N(CCC(C(N)=O)(c1ccccc1)c1ccccn1)C(C)C.O=P(O)(O)O` (stereo not given) [DISOPYRAMIDE PHOSPHATE], the “Bacterial Biotransformation” value in data set [1] was “Compound metabolized”; in data set [2], “Compound NOT metabolized”; in data set [3], “Compound NOT metabolized”; in [4] it was “Compound NOT metabolized”; in data set [5] it was “Compound NOT metabolized”; in [6], “Compound NOT metabolized”. In addition, the “Bacterial Biotransformation” value in data set [7] was “Compound NOT metabolized”; in [8], “Compound NOT metabolized”; in [9], “Compound NOT metabolized”; in data set [10], “Compound metabolized”; in [11], “Compound NOT metabolized”; in data set [12] it was “Compound NOT metabolized”. Also, the “Bacterial Biotransformation” value in data set [13] was “Compound NOT metabolized”; in data set [14], “Compound NOT metabolized”; in [15], “Compound NOT metabolized”; in data set [16], “Compound NOT metabolized”; in data set [17], “Compound NOT metabolized”; in data set [18] it was “Compound metabolized”. For the same molecule, the “Bacterial Biotransformation” value in data set [19] and in data set [20] was “Compound NOT metabolized” each time.

In the case of `C[C@@H](CO)NC(=O)[C@@H]1C=C2c3cccc4[nH]cc(c34)C[C@H]2N(C)C1.O=C(O)/C=C\C(=O)O` [ERGONOVINE MALEATE], the “Bacterial Biotransformation” value in data set [1] is on record as “Compound NOT metabolized”; in [2], “Compound metabolized”; in data set [3], “Compound metabolized”; in data set [4] it was “Compound NOT metabolized”; in data set [5], “Compound NOT metabolized”; in data set [6], “Compound metabolized”. In addition, the “Bacterial Biotransformation” value is on record as “Compound NOT metabolized” in data set [7]; “Compound NOT metabolized” in [8]; “Compound metabolized” in [9]; “Compound metabolized” in data set [10]; “Compound metabolized” in [11]; “Compound NOT metabolized” in data set [12]. Moreover, the “Bacterial Biotransformation” value is listed as “Compound NOT metabolized” in data set [13]; “Compound metabolized” in data set [14]; “Compound NOT metabolized” in data set [15]; “Compound NOT metabolized” in data set [16]; “Compound metabolized” in [17]; “Compound metabolized” in data set [18]. For the same molecule, the “Bacterial Biotransformation” value in [19] and in data set [20] was “Compound metabolized” in each case.

With `CCN(CC)C(C)CN1c2ccccc2Sc2ccccc21` (stereo not given) [ETHOPROPAZINE], the “Bacterial Biotransformation” value is “Compound metabolized” in [1]; “Compound metabolized” in data set [2]; “Compound metabolized” in data set [3]; “Compound NOT metabolized” in data set [4]; “Compound metabolized” in data set [5]; “Compound metabolized” in [6]. In addition, the “Bacterial Biotransformation” value in [7] is given as “Compound metabolized”; in data set [8], “Compound NOT metabolized”; in [9], “Compound metabolized”; in [10], “Compound metabolized”; in data set [11] it was “Compound metabolized”; in [12] it was “Compound NOT metabolized”. Moreover, the “Bacterial Biotransformation” value in [13] is listed as “Compound NOT metabolized”; in data set [14] it was “Compound metabolized”; in data set [15], “Compound NOT metabolized”; in data set [16], “Compound metabolized”; in data set [17], “Compound metabolized”; in data set [18], “Compound metabolized”. For the same molecule, the “Bacterial Biotransformation” value in data set [19] and in [20] was “Compound metabolized” in each case.

For `Cc1nc(-c2ccc(OCC(C)C)c(C#N)c2)sc1C(=O)O` [FEBUXOSTAT], the “Bacterial Biotransformation” value in data set [1] is on record as “Compound NOT metabolized”; in data set [2] it was “Compound metabolized”; in [3], “Compound metabolized”; in data set [4] it was “Compound NOT metabolized”; in data set [5], “Compound metabolized”; in data set [6] it was “Compound metabolized”. The “Bacterial Biotransformation” value is on record as “Compound metabolized” in [7]; “Compound NOT metabolized” in data set [8]; “Compound metabolized” in [9]; “Compound metabolized” in data set [10]; “Compound metabolized” in data set [11]; “Compound NOT metabolized” in data set [12]. Besides, the “Bacterial Biotransformation” value in data set [13] is recorded as “Compound NOT metabolized”; in [14], “Compound metabolized”; in [15], “Compound NOT metabolized”; in data set [16], “Compound metabolized”; in data set [17], “Compound metabolized”; in data set [18] it was “Compound metabolized”. Further, the “Bacterial Biotransformation” value in data set [19] and in [20] was “Compound metabolized” each time.

Turning to `CC(C)(C(=O)O)c1ccc(C(O)CCCN2CCC(C(O)(c3ccccc3)c3ccccc3)CC2)cc1` (stereo not given) [FEXOFENADINE], the “Bacterial Biotransformation” value in data set [1], in [2], in data set [3], in [4], in data set [5] and in data set [6] was “Compound NOT metabolized” each time. Besides, the “Bacterial Biotransformation” value in data set [7], in [8], in data set [9], in [10], in [11] and in data set [12] was “Compound NOT metabolized” throughout. Moreover, the “Bacterial Biotransformation” value in data set [13], in data set [14], in data set [15], in data set [16], in [17] and in [18] was “Compound NOT metabolized” in each case. In addition, the “Bacterial Biotransformation” value in data set [19] and in data set [20] was “Compound NOT metabolized” each time.

These data come from ChEMBL document CHEMBL5724914, “Linking interpersonal differences in gut microbiota composition and drug biotransformation activity” (2024).
